Values joined by “and” are separate entries in the source; they are usually repeats but may differ in a detail not shown here. Identical values can stand only once. Like-named read-outs stand apart in the source and are kept apart here.
Assays:
[1] = test system: L. amazonensis promastigotes; assay: Inhibition of L. amazonensis promastigotes, MTT method; format: cell-based, Leishmania amazonensis
Protocol: The MHOM/BR/pH8 strain was transferred to the NNN solid medium (Novy-MacNeal-Nicolle) for 48 h at 24 °C.
(Sigma-Aldrich) method was used. This method evaluates the cell viability by the activity of mitochondrial succinate dehydrogenase enzyme that cleaves the tetrazolium salt to form formazan crystals in living cells. For the cultures of P. falciparum-infected erythrocytes, the IC50 were determined by optical microscopy.
Then, 10 μL of MTT solution (5 mg/mL) was added to all wells and the cultures were re-incubated at the same condition for 4 h, but protected from light. […] The results were expressed in percentage.

[2] = test system: P. falciparum-infected erythrocytes; assay: Growth inhibition of P. falciparum-infected erythrocytes, optical microscopy; format: cell-based; details: Plasmodium falciparum, Erythrocyte; for inhibition at 0.008 µg/mL: positive control, 8 ng/mL
Protocol: The Pf/Unb169 strain, kept under cryopreservation was culture together with O^+ erythrocytes in RPMI 1640 medium, supplemented with hypoxanthine (0.25 mg/dL), 10% of human serum, and gentamicin ([…]), at 37 °C in air with 5% CO2. For the assays, a suspension with 3% of hematocrit and 0.6% of infected erythrocytes was prepared.
To assess inhibitory or cytotoxic concentrations of the compounds (1–5), able to eliminate 50% of the cells in the cultures of L. amazonensis (IC50) and cytotoxic concentrations (CC50) in the cultures of peritoneal cell, MTT [3-(4,5-dimethylthiazol-2-yl)-2,5-diphenyltetrazolium bromide] (Sigma-Aldrich) method was used. This method evaluates the cell viability by the activity of mitochondrial succinate dehydrogenase enzyme that cleaves the tetrazolium salt to form formazan crystals in living cells. For the cultures of P. falciparum-infected erythrocytes, the IC50 were determined by optical microscopy. The concentrations for the compounds tested were calculated in μg/mL (ranging from 0 to 256 μg/mL), as well their equivalent in […], being: 1 (0 to 806.7 μM), 2 (0 to 833.0 μM), 3 (0 to 923.0 μM), 4 (0 to 832.8 μM) and 5 (0 to 923.1 μM).
A suspension of O^+ human erythrocytes (3% hematocrit and 0.6% of infected erythrocytes) was incubated at 37 °C with 5% of CO2 in air, for 48 or 72 h in RPMI 1640 medium supplemented with 10% human serum, in triplicate, in 96 wells plate, with different concentrations (0 to 256 μg/mL) of compounds (1–5). As positive control, infected erythrocytes were incubated with 8 ng/mL of artesunate (Artemix Ativus, São Paulo, Brazil) and, as negative control, they were incubated exclusively with the diluent (complete RPMI 1640 medium); 50% of the medium, for the cultures incubated for 72 h, was exchanged after 48 h, at the same concentrations as before. After that, 150 μL of the supernatant of the cultures were discarded, and a drop of suspension distended onto slides for microscopy, dried and fixed with methanol, was stained for 15 min with 10% of Giemsa solution (PBS, pH 6.9). The erythrocytes (1000 cells/slide) were analyzed by a single observer with optical microscopy and the results were expressed in percentage of infected cells.
The SI for each amide (1–5) was obtained by dividing the concentration able to eliminate 50% of peritoneal cells (CC50) by the concentration able to inhibit the growth of 50% of the protozoa (IC50). Compounds which presented SI greater than 10 were considered potentially microbicides and safe for the host cells (Bézivin et al. [2003]).

[3] = Cytotoxicity to peritoneal cells, MTT method; format: cell-based, Swiss mice; details: both sexes, Swiss, mouse, peritoneal cells (>99% macrophages), 6 h incubation, read-out: Estimated CC50 peritoneal cell 6 h
Protocol: To obtain peritoneal cells, six adult Swiss mice (male and female), weighing 30 ± 6 g, were used. During the experiments, the animals were kept in the Faculty of Medicine, University of Brasilia under ambient temperature, light/dark cycle of 12 h, fed with balanced diet and water ad libitum. The study was approved by the Ethics Committee on Animal Use (CEUA) of the Institute of Biological Sciences at University of Brasilia (Doc. no. 22199/2014).
To assess inhibitory or cytotoxic concentrations of the compounds (1–5), able to eliminate 50% of the cells in the cultures of L. amazonensis (IC50) and cytotoxic concentrations (CC50) in the cultures of peritoneal cell, MTT [3-(4,5-dimethylthiazol-2-yl)-2,5-diphenyltetrazolium bromide] (Sigma-Aldrich) method was used. This method evaluates the cell viability by the activity of mitochondrial succinate dehydrogenase enzyme that cleaves the tetrazolium salt to form formazan crystals in living cells. […]
Initially, cells obtained by washing the peritoneal cavity of the mice with 10 mL of PBS pH 7.2 at 4 °C, centrifuged at 400 g for 10 min and suspended with 1 mL of RPMI 1640 medium were quantified at Neubauer chamber with 0.05% of nigrosin solution. […] The formazan crystals were solubilized with 50 μL of DMSO/well and the absorbance obtained in spectrophotometer (Spectra Max® Plus 384) with 550 nm. […]

COc1cc(/C=C/C(=O)N2CCC=CC2=O)cc(OC)c1OC [Compound 1, 1-[(E)-3-(3,4,5-trimethoxyphenyl)prop-2-enoyl]-2,3-dihydropyridin-6-one]
Selectivity Index (SI) = CC50/IC50, L. amazonensis ([1]; CC50 peritoneal cells 6 h / IC50 L. amazonensis 6 h): 1.3
Inhibitory activity relative to piperidine analogue (fold) ([1]; L. amazonensis promastigotes, fold superior to piperidine analogue (IC50 2297.9 μM)): 4.07 fold
IC50 ([1]; Leishmania amazonensis, 6 h, read-out: Estimated IC50 L. amazonensis 6 h): 564 µM and 179 µg/mL
IC50 ([2]; 48 h, read-out: Estimated IC50 P. falciparum 48 h): 19.5 µM and 6.2 µg/mL
inhibition at 64 µg/mL ([2]; 48 h, read-out: Inhibition of growth of parasites (P. falciparum)): 100%
IC50 ([2]; 72 h, read-out: Estimated IC50 P. falciparum 72 h): 10.1 µM and 3.2 µg/mL
inhibition at 8 µg/mL ([2]; 72 h, read-out: Inhibition of growth of parasites (P. falciparum)): 100%
CC50 at 6 h [3]: 731 µM and 232 µg/mL

CNC[C@H](O)[C@@H](O)[C@H](O)[C@H](O)CO.[O]=[Sb](=[O])[OH] [N-metilglucamine, antimoniate of N-metilglucamine, reference compound]
Inhibition of the parasites (L. amazonensis) ([1]; positive control, 4 μg/mL, 6 h incubation): 55.4%

C[C@H]1[C@H](OC(=O)CCC(=O)O)O[C@@H]2O[C@@]3(C)CC[C@H]4[C@H](C)CC[C@@H]1[C@@]24OO3 [artesunate, reference compound]
inhibition at 0.008 µg/mL ([2]; 48 h incubation, read-out: Inhibition of the parasites (P. falciparum) 48 h): 79.8%
inhibition at 0.008 µg/mL ([2]; 72 h incubation, read-out: Inhibition of the parasites (P. falciparum) 72 h): 90%

COc1cc(C=CC(=O)N2CCCCC2)cc(OC)c1OC [piperidine analogue]
IC50 ([1]; previous screening, data not shown, read-out: IC50 on growth of L. amazonensis promastigotes): 2.3 mM

From PMC6130495, “Effect of piplartine and cinnamides on Leishmania amazonensis, Plasmodium falciparum and on peritoneal cells of Swiss mice” (Pharmaceutical Biology, 2017)
